Measurements taken from patent publication US20070298099A1, “Liquid and Semi-Solid Pharmaceutical Formulations for Oral Administration of a Substituted Amide” (priority 2004, published 2007).

Experiments:
[1] = Aqueous solubility of Compound I; assay type: physicochemical
[2] = Oral bioavailability when dosed as a crystalline solid, dogs; assay type: in vivo; conditions: even when surfactant was included in the formulation
[3] = Oral bioavailability when dosed as a crystalline solid, monkeys; assay type: in vivo; conditions: even when surfactant was included in the formulation
[4] = Solubility of Compound I Polymorph B in various liquid vehicles (suspension equilibrated at least 24 hours, filtered, HPLC); assay type: physicochemical
Description: Solubility determinations were carried out at room temperature unless otherwise specified. Solubility of N-[1S,2S]-3-(4-chlorophenyl)-2-(3-cyanophenyl)-1-methylpropyl]-2-methyl-2-{[5-trifluoromethyl]pyridine-2-yl}oxy}propanamide (Compound I) as anhydrous unsolvated Polymorph B (such as prepared in Preparatory Example 2) was determined by preparing a suspension of anhydrous unsovated Polymorph B of Compound I in the solvent system. After equilibration for at least 24 hours, the suspension was filtered and the supernatant was analyzed by HPLC. Chromatography was performed on either a Vydac C18 300 A 250×4.6 mm 5 um particle size with in-line Phenomenex Security Guard w/ C18 cartridge or on a Polaris C18-Ether columns or on a Polaris C8-Ether columns using 0.1% phosphoric acid in combination with methanol or acetonitrile depending on HPLC conditions. The compound was detected at […] and assayed using standard curves. The results are presented below in Table 1, calculated based on mg/g vehicle.

What does the source list for C[C@H](NC(=O)C(C)(C)Oc1ccc(C(F)(F)F)cn1)[C@@H](Cc1ccc(Cl)cc1)c1cccc(C#N)c1 [Compound I, N-[1S,2S]-3-[(4-chlorophenyl)-2-(3-cyanophenyl)-1-methylpropyl]-2-methyl-2-{[(5-trifluoromethyl)pyridine-2-yl]oxy}propanamide]?
solubility ([1]; aqueous medium (not further specified)): < 0.4 µg/mL; solubility ([1]; aqueous medium, typically): < 0.4 µg/mL; oral bioavailability [2]: very poorly orally bioavailable; oral bioavailability [3]: very poorly orally bioavailable; Solubility of Compound I, mg/g of vehicle ([4]; CAPRYOL PGMC, anhydrous unsolvated Polymorph B, room temperature): 396 mg/g of vehicle; Solubility of Compound I, mg/g of vehicle ([4]; CREMOPHOR-EL, Polymorph B, room temperature): 131 mg/g of vehicle; Solubility of Compound I, mg/g of vehicle ([4]; Corn oil-SPAN 80-CREMOPHOR EL (35:35:30), w/w/w, Polymorph B, room temperature): 69 mg/g of vehicle; Solubility of Compound I, mg/g of vehicle ([4]; Corn oil-SPAN 80-TWEEN 80 (30:30:40), w/w/w, Polymorph B, room temperature): 78 mg/g of vehicle; Solubility of Compound I, mg/g of vehicle ([4]; Corn oil/Oleic acid/TWEEN 80 (5:2:3), w/w/w, Polymorph B, room temperature): 57 mg/g of vehicle; Solubility of Compound I, mg/g of vehicle ([4]; Glycerol, Polymorph B, room temperature): 0.4 mg/g of vehicle; Solubility of Compound I, mg/g of vehicle ([4]; IMWITOR 742-MIGLYOL 812-TWEEN 80, (15:65:20) w/w/w, Polymorph B, room temperature): 140 mg/g of vehicle; Solubility of Compound I, mg/g of vehicle ([4]; IMWITOR 742-MIGLYOL 812-TWEEN 80, (30:50:20) w/w/w, Polymorph B, room temperature): 171 mg/g of vehicle; Solubility of Compound I, mg/g of vehicle ([4]; IMWITOR 742-MIGLYOL 812-TWEEN 80, (40:40:20) w/w/w, Polymorph B, room temperature): 187 mg/g of vehicle; Solubility of Compound I, mg/g of vehicle ([4]; IMWITOR 742-MIGLYOL 812-TWEEN 80,(45:45:10) w/w/w, Polymorph B, room temperature): ≧191 mg/g of vehicle; Solubility of Compound I, mg/g of vehicle ([4]; IMWITOR 742-Oleic Acid-TWEEN 80-MIGLYOL 812 (2:4:2:2), w/w/w/w, Polymorph B, room temperature): 140 mg/g of vehicle; Solubility of Compound I, mg/g of vehicle ([4]; IMWITOR 742-TWEEN 80 (50:50) w/w, Polymorph B, room temperature): 184 mg/g of vehicle; Solubility of Compound I, mg/g of vehicle ([4]; IMWITOR 742-TWEEN 80 (60:40), w/w, Polymorph B, room temperature): 209 mg/g of vehicle; Solubility of Compound I, mg/g of vehicle ([4]; IMWITOR 742-TWEEN 80, (70:30), w/w, Polymorph B, room temperature): 222 mg/g of vehicle; Solubility of Compound I, mg/g of vehicle ([4]; IMWITOR 742-TWEEN 80-Oleic Acid (4:2:4), w/w/w, Polymorph B, room temperature): 159 mg/g of vehicle; Solubility of Compound I, mg/g of vehicle ([4]; IMWITOR 742-TWEEN 80-Oleic Acid (5:3:2), w/w/w, Polymorph B, room temperature): 178 mg/g of vehicle; Solubility of Compound I, mg/g of vehicle ([4]; IMWITOR 742, at 30 C., anhydrous unsolvated Polymorph B): 267 (at 30 C.) mg/g of vehicle; Solubility of Compound I, mg/g of vehicle ([4]; LABRAFIL M1944CS, Polymorph B, room temperature): 84 mg/g of vehicle; Solubility of Compound I, mg/g of vehicle ([4]; LABRASOL, Polymorph B, room temperature): 202 mg/g of vehicle; Solubility of Compound I, mg/g of vehicle ([4]; MIGLYOL 812-Corn oil-SPAN 80-TWEEN 80 (30:20:25:25), w/w/w, Polymorph B, room temperature): 97 mg/g of vehicle; Solubility of Compound I, mg/g of vehicle ([4]; MIGLYOL 812-IMWITOR 742, 1:1 v/v, Polymorph B, room temperature): ≧204 mg/g of vehicle; Solubility of Compound I, mg/g of vehicle ([4]; MIGLYOL 812-IMWITOR 742, 4:1 v/v, Polymorph B, room temperature): 173 mg/g of vehicle; Solubility of Compound I, mg/g of vehicle ([4]; MIGLYOL 812-LABRASOL/TWEEN80/Oleic acid (40:25:25:10), w/w/w/w, Polymorph B, room temperature): 158 mg/g of vehicle; Solubility of Compound I, mg/g of vehicle ([4]; MIGLYOL 812-PECEOL, 1:1 v/v, Polymorph B, room temperature): 118 mg/g of vehicle; Solubility of Compound I, mg/g of vehicle ([4]; MIGLYOL 812-TWEEN 80, 1:1 w/w, Polymorph B, room temperature): 113 mg/g of vehicle; Solubility of Compound I, mg/g of vehicle ([4]; MIGLYOL 812/Oleic acid/CREMOPHOR EL (5:2:3), w/w/w/w, Polymorph B, room temperature): 129 mg/g of vehicle; Solubility of Compound I, mg/g of vehicle ([4]; MIGLYOL 812/Oleic acid/TWEEN 80 (5:2:3), w/w/w/w, Polymorph B, room temperature): 120 mg/g of vehicle; Solubility of Compound I, mg/g of vehicle ([4]; MIGLYOL 812, Polymorph B, room temperature): 94 mg/g of vehicle; Solubility of Compound I, mg/g of vehicle ([4]; Oleic Acid, Polymorph B, room temperature): 20 mg/g of vehicle; Solubility of Compound I, mg/g of vehicle ([4]; Olive oil, Polymorph B, room temperature): 18 mg/g of vehicle; Solubility of Compound I, mg/g of vehicle ([4]; PEG400-TWEEN80 (1:1), w/w, Polymorph B, room temperature): 138 mg/g of vehicle; Solubility of Compound I, mg/g of vehicle ([4]; PEG400, Polymorph B, room temperature): 120 mg/g of vehicle; Solubility of Compound I, mg/g of vehicle ([4]; PG, Polymorph B, room temperature): 28 mg/g of vehicle; Solubility of Compound I, mg/g of vehicle ([4]; SPAN 80, Polymorph B, room temperature): 45 mg/g of vehicle; Solubility of Compound I, mg/g of vehicle ([4]; Soybean Oil, Polymorph B, room temperature): 21 mg/g of vehicle; Solubility of Compound I, mg/g of vehicle ([4]; Soybean oil-SPAN 80-TWEEN 80 (50:25:25), w/w/w, Polymorph B, room temperature): 59 mg/g of vehicle; Solubility of Compound I, mg/g of vehicle ([4]; TWEEN 80-LABRASOL-Oleic Acid (25:25:50), w/w/w, Polymorph B, room temperature): 120 mg/g of vehicle; Solubility of Compound I, mg/g of vehicle ([4]; TWEEN 80, Polymorph B, room temperature): 104 mg/g of vehicle
